Tests used:
[1] = aqueous solubility as a function of pH; type: physicochemical
[2] = solubility in substituted-β-cyclodextrin solution as a function of pH; type: physicochemical
[3] = aqueous buffer, neutral form / free base, room temperature, pH 6.8

Structure (SMILES)	solubility [1, 3]	solubility on adjusting pH ([1]; pH adjusted within pH 3-11, needed level e.g. 2.5 mg/mL)	solubility ([1]; simulated gastric fluid, hydrochloride salt, normal gastric pH condition, pH of gastric medium ~1-2)	solubility in the substituted-β-cyclodextrins ([2]; pH 4.5 versus higher pH's up to 11)	solubility in substituted-β-cyclodextrin solution ([2]; pH lowered to between about 3 and about 4)
COc1ccc(-n2nc(C(N)=O)c3c2C(=O)N(c2ccc(N4CCCCC4=O)cc2)CC3)cc1 [Apixaban, 1-(4-methoxyphenyl)-7-oxo-6-[4-(2-oxo-1-piperidinyl)phenyl]-4,5,6,7-tetrahydro-1H-pyrazolo [3,4-c]pyridine-3-carboxamide]	< 1 µg/mL				
CN(C)Cc1nccn1-c1ccc(NC(=O)c2cc(C(F)(F)F)nn2-c2ccc3onc(N)c3c2)c(F)c1.Cl [razaxaban]	< 1 µg/mL	could not be increased to the needed level	~3000 µg/mL	same solubility	increase in solubility
